The target in assay [1] is Glutamate receptor AMPA 2/3 (Homo sapiens) (UniProt P42263+P42262). Particulars: Oocyte; at 100 µM.
Assay [2] addresses Glutamate receptor AMPA 1/2 (Homo sapiens) (UniProt P42262+P42261). The conditions noted are these: Oocyte; at 100 µM.
Assay [3] has as its target T1, Glutamate receptor 2 (Homo sapiens, UniProt P42262). The conditions noted are these: Oocyte; at 100 µM.
Assay [4] has as its target T2, Glutamate receptor 1 (Homo sapiens, UniProt P42261). Particulars: Oocyte; at 100 µM.
Assay [5] concerns the target Glutamate receptor AMPA 1/2 (Homo sapiens, UniProt P42261+P42262). Kind of assay: Inhibition of recombinant GluA1A2 receptor flip isoform expressed in Xenopus oocytes assessed as inhibition of […] uM glutamate-induced current. Format: cell-based, Oocyte.
Assay [6] has as its target T2, Glutamate receptor 1. Kind of assay: Inhibition of recombinant GluA1 receptor flip isoform expressed in Xenopus oocytes assessed as inhibition of […] uM glutamate-induced current. The assay is classed as cell-based, Oocyte.
Assay [7] has as its target T3, Glutamate receptor 3 (Homo sapiens, UniProt P42263). The conditions noted are these: Oocyte; at 100 µM.
Assay [8] deals with T3, Glutamate receptor 3. The conditions noted are these: Oocyte; at 0.5 µM.
In assay [9] the target is T3, Glutamate receptor 3. Put plainly: Inhibition of recombinant GluA3 receptor flop isoform expressed in Xenopus oocytes assessed as inhibition of […] uM kainate-induced current by patch clamp electrophysiological assay. Format: cell-based, Oocyte.
The test system of assay [10] is Oocyte. The conditions noted are these: at 0.5 µM.
In assay [11] the target is T2, Glutamate receptor 1. The assay is classed as cell-based, Oocyte.
The target in assay [12] is T2, Glutamate receptor 1. Put plainly: Activity at human recombinant GluA1 receptor flip isoform expressed in HEK293 cells assessed as effect on glutamate-induced calcium flux by Fluo-4/AM staining-based fluorescence assay. Format: cell-based. For orientation: A change in cytosolic calcium serves as a functional read-out for many receptors and channels.
The target of assay [13] is T1, Glutamate receptor 2. Put plainly: Activity at human recombinant GluA2 flop isoform expressed in HEK203 cells assessed as blocked of receptor desensitization.
Assay [14] deals with T1, Glutamate receptor 2. Kind of assay: Activity at human recombinant GluA2 flip isoform expressed in HEK203 cells assessed as blocked of receptor desensitization.
Assay [15] concerns the target T3, Glutamate receptor 3. Put plainly: Activity at human recombinant GluA3 receptor flip isoform expressed in HEK293 cells assessed as effect on glutamate-induced calcium flux by Fluo-4/AM staining-based fluorescence assay. Format: cell-based.
Assay [16] has as its target T1, Glutamate receptor 2. Put plainly: Activity at human recombinant GluA2 receptor flop isoform expressed in HEK293 cells assessed as effect on glutamate-induced calcium flux by Fluo-4/AM staining-based fluorescence assay. Format: cell-based.
Assay [17] has as its target T1, Glutamate receptor 2. Put plainly: Activity at human recombinant GluA2 receptor flip isoform expressed in HEK293 cells assessed as effect on glutamate-induced calcium flux by Fluo-4/AM staining-based fluorescence assay. The assay is classed as cell-based.
A short description of assay [18]: Activity at human recombinant GluA4 receptor flip isoform expressed in HEK293 cells assessed as effect on glutamate-induced calcium flux by Fluo-4/AM staining-based fluorescence assay. The assay is classed as cell-based.

T2 sequence (P42261 whole entry, canonical isoform): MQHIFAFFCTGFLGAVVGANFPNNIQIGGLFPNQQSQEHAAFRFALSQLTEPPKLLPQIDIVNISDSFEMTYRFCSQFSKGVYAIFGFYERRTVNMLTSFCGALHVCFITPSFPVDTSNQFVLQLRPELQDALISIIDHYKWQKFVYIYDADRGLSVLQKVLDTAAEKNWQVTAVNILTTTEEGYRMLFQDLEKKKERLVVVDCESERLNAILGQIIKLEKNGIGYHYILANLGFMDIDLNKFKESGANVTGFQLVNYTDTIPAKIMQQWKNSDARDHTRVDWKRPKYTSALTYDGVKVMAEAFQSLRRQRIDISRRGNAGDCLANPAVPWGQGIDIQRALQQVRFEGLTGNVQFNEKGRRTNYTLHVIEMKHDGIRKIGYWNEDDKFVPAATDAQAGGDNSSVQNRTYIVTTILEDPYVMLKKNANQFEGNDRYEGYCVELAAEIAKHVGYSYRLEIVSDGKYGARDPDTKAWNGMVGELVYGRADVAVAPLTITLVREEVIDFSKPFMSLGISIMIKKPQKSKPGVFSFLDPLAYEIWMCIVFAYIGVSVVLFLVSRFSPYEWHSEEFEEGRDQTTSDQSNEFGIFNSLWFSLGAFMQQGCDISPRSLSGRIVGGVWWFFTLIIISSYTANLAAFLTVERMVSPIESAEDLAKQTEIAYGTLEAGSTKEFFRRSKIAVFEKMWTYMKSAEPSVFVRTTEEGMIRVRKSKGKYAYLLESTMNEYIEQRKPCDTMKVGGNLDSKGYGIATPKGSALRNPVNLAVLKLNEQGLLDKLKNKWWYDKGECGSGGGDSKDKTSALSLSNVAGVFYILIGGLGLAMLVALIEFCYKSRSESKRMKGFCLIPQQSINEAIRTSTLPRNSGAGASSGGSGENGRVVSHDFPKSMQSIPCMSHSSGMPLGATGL
T1 sequence (P42262 whole entry): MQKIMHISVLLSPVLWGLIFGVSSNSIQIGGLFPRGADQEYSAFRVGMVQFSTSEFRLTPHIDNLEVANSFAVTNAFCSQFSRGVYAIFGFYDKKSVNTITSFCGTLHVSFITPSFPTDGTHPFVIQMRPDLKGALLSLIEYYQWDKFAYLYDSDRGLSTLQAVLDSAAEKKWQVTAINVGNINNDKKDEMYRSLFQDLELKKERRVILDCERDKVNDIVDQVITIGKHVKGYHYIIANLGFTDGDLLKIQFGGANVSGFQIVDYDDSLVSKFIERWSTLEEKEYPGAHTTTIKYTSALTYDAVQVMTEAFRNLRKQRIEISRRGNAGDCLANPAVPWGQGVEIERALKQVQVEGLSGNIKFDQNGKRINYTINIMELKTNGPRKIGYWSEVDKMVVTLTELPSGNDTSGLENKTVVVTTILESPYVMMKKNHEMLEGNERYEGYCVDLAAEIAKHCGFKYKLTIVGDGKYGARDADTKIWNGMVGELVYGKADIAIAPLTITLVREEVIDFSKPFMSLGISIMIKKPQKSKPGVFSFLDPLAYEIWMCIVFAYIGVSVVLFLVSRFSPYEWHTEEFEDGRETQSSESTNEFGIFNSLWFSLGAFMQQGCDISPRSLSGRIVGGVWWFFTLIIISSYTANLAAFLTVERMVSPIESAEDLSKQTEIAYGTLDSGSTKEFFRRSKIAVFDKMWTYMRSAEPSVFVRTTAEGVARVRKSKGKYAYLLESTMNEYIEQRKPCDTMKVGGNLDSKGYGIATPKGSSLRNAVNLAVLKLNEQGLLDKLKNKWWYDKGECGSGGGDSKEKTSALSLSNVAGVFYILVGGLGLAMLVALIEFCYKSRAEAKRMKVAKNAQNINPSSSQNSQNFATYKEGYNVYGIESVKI
T3 sequence (P42263 whole entry): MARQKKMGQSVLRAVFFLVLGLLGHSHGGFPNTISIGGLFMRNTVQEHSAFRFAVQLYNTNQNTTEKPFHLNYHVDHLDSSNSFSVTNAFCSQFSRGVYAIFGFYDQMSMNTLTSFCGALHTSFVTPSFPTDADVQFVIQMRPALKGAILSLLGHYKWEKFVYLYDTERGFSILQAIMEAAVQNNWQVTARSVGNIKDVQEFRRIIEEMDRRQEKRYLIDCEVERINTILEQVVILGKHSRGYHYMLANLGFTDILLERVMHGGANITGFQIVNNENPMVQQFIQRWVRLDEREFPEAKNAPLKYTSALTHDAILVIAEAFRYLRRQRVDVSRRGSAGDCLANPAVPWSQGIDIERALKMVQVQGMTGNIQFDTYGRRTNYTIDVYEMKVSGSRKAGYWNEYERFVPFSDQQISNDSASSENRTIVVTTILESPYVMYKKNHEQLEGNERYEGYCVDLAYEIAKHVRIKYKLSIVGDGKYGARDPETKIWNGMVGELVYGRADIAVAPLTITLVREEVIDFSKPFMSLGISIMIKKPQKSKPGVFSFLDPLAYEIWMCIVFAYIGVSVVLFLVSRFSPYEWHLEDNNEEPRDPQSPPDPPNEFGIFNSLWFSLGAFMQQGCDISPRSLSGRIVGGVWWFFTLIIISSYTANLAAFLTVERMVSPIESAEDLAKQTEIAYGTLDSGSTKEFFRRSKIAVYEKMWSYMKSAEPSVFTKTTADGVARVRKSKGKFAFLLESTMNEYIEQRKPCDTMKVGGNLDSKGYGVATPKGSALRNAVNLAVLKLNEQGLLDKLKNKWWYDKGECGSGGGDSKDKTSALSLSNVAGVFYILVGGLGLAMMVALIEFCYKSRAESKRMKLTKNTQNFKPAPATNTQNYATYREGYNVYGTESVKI
Glutamate receptor AMPA 1/2, sequence (P42262 whole entry, canonical isoform): as the sequence (P42262 whole entry) above
Glutamate receptor AMPA 1/2, sequence (P42261 whole entry, canonical isoform): as the sequence (P42261 whole entry, canonical isoform) above

Broadly, the inhibition is the relative decrease from the control value, in per cent. Lower therefore signals little suppression. For orientation: Ki means a dissociation constant, usually derived from enzyme kinetics or from competition with a known ligand. Take `CCCC(=O)N[C@@H](Cc1ccc(O)cc1)C(=O)NCCCCCCCNCCCCN`: the inhibition in assay [1] is 2.6%; in [2], 84.3%; in assay [3], 2.1%; in [4], 100%; in assay [7], 100%. The values for the Ki in [5] and in assay [6] were 1.6 µM and 0.168 µM, respectively.
In general, IC50 refers to the midpoint of a concentration-inhibition curve. Consider `NCCCNCCCCNCCC(=O)NCCCCCNC(=O)[C@H](CC(N)=O)NC(=O)Cc1ccc(O)cc1O` [JORO SPIDER TOXIN 3], for which the values for the inhibition in assay [8] and in [10] were 96% and 82%, respectively. The IC50 is 0.03 µM in [9] and 0.04 µM in assay [11].
One may read the EC50 as the concentration needed to bring the measured effect to its halfway point. Regarding `CC(CNS(=O)(=O)C(C)C)C1CCC(c2ccc(C#N)cc2)CC1` (stereo not drawn), the EC50 in [12] turned out to be 5.65 µM; in [13], 1.44 µM; in assay [14] it was 15 µM; in assay [15], 1.66 µM; in [16] it was 1.44 µM; in [17] it was 0.15 µM. Further, in [18], the EC50 was 0.21 µM.

For the origin of these results see ChEMBL document CHEMBL1157033, “Developing a complete pharmacology for AMPA receptors: a perspective on subtype-selective ligands” (Bioorg Med Chem, 2010).
